Test results from patent publication US12371454B2, “Cyclic peptide compound having Kras inhibitory action” (priority 2019, dated 2025).
Starred links: 1 amine or outer side, 2 acyl side, 3 side chain; linkers in the order of their positions; H or OH if unused. Positions of bridges follow the written chain, without caps; N, C: chain ends. Non-standard residues stand in square brackets, D forms with d. Residues, ends and D or L forms follow the SMILES beside them. *: point of attachment. hPhe(3-Cl-4-CF3) = N[C@@H](CCc1ccc(C(F)(F)F)c(Cl)c1)C(=O)O; hPhe(3-F,4-CF3) = N[C@@H](CCc1ccc(C(F)(F)F)c(F)c1)C(=O)O; hPhe(4-CF3) = N[C@@H](CCc1ccc(C(F)(F)F)cc1)C(=O)O; NMePhe(4-CN) = CN[C@@H](Cc1ccc(C#N)cc1)C(=O)O; 3Oxa8azabicyclo(3.2.1)octane = C1CC2COCC1N2*; NMePhe(4-Cl) = CN[C@@H](Cc1ccc(Cl)cc1)C(=O)O; NMeNle(6-CHF2) = CN[C@@H](CCCCC(F)F)C(=O)O; NMePhe(3-F) = CN[C@@H](Cc1cccc(F)c1)C(=O)O; X22 = O=C([C@@H]1Cc2ccccc2N1[*:1])[*:2]; NMeGly(cPent) = CN[C@H](C(=O)O)C1CCCC1; Phe(3-I) = N[C@@H](Cc1cccc(I)c1)C(=O)O; NMeCha = CN[C@@H](CC1CCCCC1)C(=O)O; NMeChg = CN[C@H](C(=O)O)C1CCCCC1; N(CH2CH2)2CF2 = FC1(F)CCN(*)CC1; NMeD = CN[C@@H](CC(=O)O)C(=O)O; NMeL = CN[C@@H](CC(C)C)C(=O)O; Chg = N[C@H](C(=O)O)C1CCCCC1; NMeV = CN[C@H](C(=O)O)C(C)C; d(β3hA) = C[C@@H](N)CC(=O)O; NMeS = CN[C@@H](CO)C(=O)O; NMeA = CN[C@@H](C)C(=O)O; Nle = CCCC[C@H](N)C(=O)O; Piperidide = C1CCN(*)CC1; Pyrrolidide = C1CCN(*)C1; Ac5c = NC1(C(=O)O)CCCC1; Aze = O=C(O)[C@@H]1CCN1; CH2CMe2OH = CC(C)(O)C*; Aib = CC(C)(N)C(=O)O; βAla = NCCC(=O)O; Sar = CNCC(=O)O

These compounds were tested against T1, Kras and SOS1 (biotin-tagged human Kras loaded with GDP, His-tagged human SOS1) (Homo sapiens, UniProt P01116, G12D) (assay: Protein-protein interaction inhibition between Kras and SOS1 (KrasGl2D-SOS PPI) using AlphaScreen). Settings: AlphaScreen; biotin-tagged human Kras loaded with GDP, His-tagged human SOS1; read-out: KRAS G12D-SOS PPI IC50.
T1 construct: made in house; host or cells: E. coli (stated for Kras only)
Type: binding
Method in brief: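 AlphaScreen format: Ni donor beads capture His-SOS1, streptavidin acceptor beads capture biotinylated Kras (E. coli-expressed, GDP-loaded post-purification). Excite 680 nm, read 520-620 nm.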

T1 sequence (P01116 1-188 isoform P01116-2 G12D): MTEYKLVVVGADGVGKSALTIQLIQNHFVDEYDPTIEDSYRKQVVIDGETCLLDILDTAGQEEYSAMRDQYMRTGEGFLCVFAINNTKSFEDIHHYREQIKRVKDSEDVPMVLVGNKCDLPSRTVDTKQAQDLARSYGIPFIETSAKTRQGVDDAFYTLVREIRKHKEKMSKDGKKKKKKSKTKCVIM

SMILES	IC50 [nM]
CC[C@H](C)[C@@H]1NC(=O)[C@H](CC(C)C)N(C)C(=O)C[C@@H](C(=O)N2CCCCC2)N(C)C(=O)[C@H](C2CCCCC2)N(C)C(=O)C2(CCCC2)NC(=O)[C@@H]2Cc3ccccc3N2C(=O)[C@H](CCc2ccc(C(F)(F)F)c(Cl)c2)NC(=O)CN(C)C(=O)[C@H](CC2CCCCC2)N(C)C(=O)[C@@H]2CCN2C(=O)CN(C)C1=O [Compound 725] ([NMeL]I[Sar][Aze][NMeCha][Sar][hPhe(3-Cl-4-CF3)][X22][Ac5c][NMeChg][NMeD]-Piperidide; lactam N-11)	7.8
CC[C@H](C)[C@@H]1NC(=O)[C@H](CC(C)C)N(C)C(=O)C[C@@H](C(=O)N2C3CCC2COC3)N(C)C(=O)[C@H](C2CCCC2)N(C)C(=O)C2(CCCC2)NC(=O)[C@H](CC(=O)N2CCC(F)(F)CC2)N(C)C(=O)[C@H](CCc2ccc(C(F)(F)F)c(Cl)c2)NC(=O)CN(C)C(=O)[C@H](CC2CCCCC2)N(C)C(=O)[C@@H]2CCN2C(=O)[C@H](C)N(C)C1=O [Compound 1039] ([NMeL]I[NMeA][Aze][NMeCha][Sar][hPhe(3-Cl-4-CF3)][NMeD](N(CH2CH2)2CF2)[Ac5c][NMeGly(cPent)][NMeD]-{3Oxa8azabicyclo(3.2.1)octane}; lactam N-11)	45
CCCC[C@@H]1NC(=O)[C@H](Cc2cccc(I)c2)NC(=O)CN(C)C(=O)[C@H](Cc2ccc(Cl)cc2)N(C)C(=O)CN(C)C(=O)CN(C)C(=O)[C@H]([C@@H](C)CC)NC(=O)[C@H](CC(C)C)N(C)C(=O)C[C@@H](C(=O)N2CCCCC2)N(C)C(=O)[C@H](CC(C)C)NC(=O)[C@H](Cc2cccc(F)c2)N(C)C1=O [Compound 483] ([NMeL]I[Sar][Sar][NMePhe(4-Cl)][Sar][Phe(3-I)][Nle][NMePhe(3-F)]L[NMeD]-Piperidide; lactam N-11)	17
CC[C@H](C)[C@@H]1NC(=O)[C@H](C)N(C)C(=O)C[C@@H](C)NC(=O)[C@H](CC(C)C)N(C)C(=O)[C@H](CC2CCCCC2)N(C)C(=O)[C@@H]2CCCN2C(=O)[C@H](CCc2ccc(C(F)(F)F)cc2)NC(=O)CN(C)C(=O)[C@H](Cc2ccc(Cl)cc2)N(C)C(=O)CN(C)C(=O)CN(C)C1=O [Compound 383] (cyclo(I[Sar][Sar][NMePhe(4-Cl)][Sar][hPhe(4-CF3)]P[NMeCha][NMeL][d(β3hA)][NMeA]))	260
CC(C)C[C@H]1C(=O)N[C@@H](C2CCCCC2)C(=O)N(C)CC(=O)N(C)CC(=O)N(C)[C@@H](CCCCC(F)F)C(=O)N(C)CC(=O)N[C@@H](CCc2ccc(C(F)(F)F)c(F)c2)C(=O)N(C)[C@@H](CC(C)C)C(=O)NC(C)(C)C(=O)N(C)[C@@H](CC(C)C)C(=O)N[C@H](C(=O)N2CCCC2)CC(=O)N1C [Compound 1453] ([NMeL][Chg][Sar][Sar][NMeNle(6-CHF2)][Sar][hPhe(3-F,4-CF3)][NMeL][Aib][NMeL]D-Pyrrolidide; lactam N-11)	110
CC[C@H](C)[C@@H]1NC(=O)[C@H](CC(C)C)N(C)C(=O)C[C@@H](C(=O)N2CCCCC2)N(C)C(=O)[C@H](C(C)C)N(C)C(=O)C2(CCCC2)NC(=O)[C@@H]2CCCN2C(=O)[C@H](CCc2ccc(C(F)(F)F)c(Cl)c2)NC(=O)CN(C)C(=O)[C@H](Cc2ccc(C#N)cc2)N(C)C(=O)CN(C)C(=O)CN(C)C1=O [Compound 867] ([NMeL]I[Sar][Sar][NMePhe(4-CN)][Sar][hPhe(3-Cl-4-CF3)]P[Ac5c][NMeV][NMeD]-Piperidide; lactam N-11)	3.4
CC[C@H](C)[C@@H]1NC(=O)CCNC(=O)[C@H](COCC(C)(C)O)N(C)C(=O)[C@H](C2CCCCC2)N(C)C(=O)C2(CCCC2)NC(=O)[C@@H]2CCCN2C(=O)[C@H](CCc2ccc(C(F)(F)F)c(Cl)c2)NC(=O)CN(C)C(=O)[C@H](CC2CCCCC2)N(C)C(=O)CN(C)C(=O)CN(C)C1=O [Compound 605] (cyclo([Ac5c][NMeChg][NMeS](CH2CMe2OH)[βAla]I[Sar][Sar][NMeCha][Sar][hPhe(3-Cl-4-CF3)]P))	9
